Here are results for 1 compound from paper PMC2442904 (British Journal of Pharmacology, 2008).

Molecules are shown by their SMILES.

In this assay the target is thioredoxin-1 (Trx) (Homo sapiens, UniProt P10599). In words: insulin reduction assay with pure human Trx preincubated with PMX464. It is filed as biochemical.
Sequence of thioredoxin-1 (Trx) (P10599 2-105): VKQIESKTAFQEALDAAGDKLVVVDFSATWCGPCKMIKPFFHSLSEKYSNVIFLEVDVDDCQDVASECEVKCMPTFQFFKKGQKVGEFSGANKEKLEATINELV

As for `O=C1C=CC(O)(c2nc3ccccc3s2)C=C1` [PMX464, 4-(benzothiazol-2-yl)-4-hydroxycyclohexa-2,5-dien-1-one hydrate], the IC50 – broadly, the point on the concentration scale where inhibition reaches its midpoint – was 20 µM.
